From patent publication US5817756A, “Pseudo- and non-peptide bradykinin receptor antagonists” (Scios Inc., priority 1995, dated 1998)
Starred links: 1 amine or outer side, 2 acyl side, 3 side chain; linkers in the order of their positions; H or OH if unused. Non-standard residues stand in square brackets, D forms with d. Residues, ends and D or L forms follow the SMILES beside them. X3 = O=C(Cn1c(=O)n(C2CCN([*:1])CC2)c2ccccc21)[*:2]; X7 = O=C(Cn1c(=O)c2ccccc2c2ccc(N[*:1])cc21)[*:2]; Butenoyl(2E,4-amino) = O=C(/C=C/CN[*:1])[*:2]; X4 = O=C(Cn1c2c(c3ccccc31)CN([*:1])CC2)[*:2]; Oic = O=C(O)[C@@H]1C[C@@H]2CCCC[C@@H]2N1; X1 = O=C(C/C=C/c1ccccc1CN[*:1])[*:2]; X6 = O=C(/C=C/c1ccccc1CCN[*:1])[*:2]; X2 = O=C(/C=C/c1ccccc1CN[*:1])[*:2]; dTic = O=C(O)[C@H]1Cc2ccccc2CN1; 12Ado = NCCCCCCCCCCCC(=O)O; Nphe = O=C(O)CNCc1ccccc1; Ahx = NCCCCCC(=O)O

The compounds below were run against T1, human bradykinin B2 receptor (Homo sapiens, UniProt P30411) (assay: Radioligand binding, H2O.2 cell membranes, 3H-bradykinin). Details: Table 1, read-out: Radioligand Binding Human 3HBK.
T1 construct: The HindIII/XbaI fragment of one full-length clone, 126A, was inserted into pcDNAI neo vector; expressed in transfected cells
T1 sequence (P30411 1-391): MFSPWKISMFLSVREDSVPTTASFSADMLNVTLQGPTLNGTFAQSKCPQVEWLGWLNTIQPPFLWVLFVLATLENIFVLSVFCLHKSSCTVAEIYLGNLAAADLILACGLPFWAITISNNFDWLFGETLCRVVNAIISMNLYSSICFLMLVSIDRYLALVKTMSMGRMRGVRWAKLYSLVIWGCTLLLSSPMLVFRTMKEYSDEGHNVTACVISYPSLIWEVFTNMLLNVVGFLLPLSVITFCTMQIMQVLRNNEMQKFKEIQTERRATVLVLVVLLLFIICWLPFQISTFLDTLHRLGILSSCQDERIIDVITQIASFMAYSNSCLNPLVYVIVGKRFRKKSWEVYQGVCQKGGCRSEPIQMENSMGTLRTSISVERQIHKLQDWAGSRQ
Method: (§1) A human bradykinin B2 receptor was expressed in CHO/K cells. Briefly, approximately 2×10^6 plaques from a human uterus λgt10 cDNA library (Clontech Laboratories; Palo Alto, Calif.) were screened using a PCR fragment containing the coding region of the rat B2 receptor. This probe was generated by random-primed synthesis in the presence of α[^32 P]dATP. Duplicate filters were hybridized overnight at 42° C. in 1M NaCl, 50 mM Tris pH 7.5, 5× Denhardt's, 200 μg/ml salmon sperm DNA, 1% SDS, and 20% formamide. The filters were washed at 65° C. in 1× SSC and 1% SDS. Coincident positively hybridizing plaques were purified and rescreened with the same probe and stringency conditions. EcoRI fragments of positive clones were inserted into Bluescript/KS II+vector (Stratagene; La Jolla, Calif.) for sequence determination.
(§2) The nucleotide sequence of the cloned human B2 receptors was determined using double-stranded DNA and the dideoxy chain termination method. Commercially available T3 and T7 oligonucleotides (USB; Cleveland, Ohio) and synthetic 21-mer oligonucleotides (DNA/RNA Synthesizer; applied Biosystems Inc.; Palo Alto, Calif.) from both the known rat sequence and the determined human sequence were used to identify the nucleotide sequence from the 5' untranslated end to the BglII site in the 3' untranslated end of the clone.
(§3) CHO/K cells were plated in 2 ml of growth medium (Ham's F12 with 10% FBS) per 6 well plate and incubated at 37° C., 5% CO2 until they were 60% confluent. For each well, 4, 12, and 16 μg of DNA was diluted in 100 μl Opti-MEM I reduced serum medium (Gibco/BRL; Gaithersburg, Md.). 12 μl of TransfectASE reagent (Gibco/BRL) was diluted in a separate aliquot of 100 μl Opti-MEM I. The DNA and TransfecASE solutions were combined, mixed gently, and incubated at 25° C. for 15 minutes. This solution was then diluted to 1 ml with Opti-MEM I. Each well was washed twice with Opti-MEM I and 1 ml of the DNA/TransfectAse complex was added to each well. After a 5 hour incubation at 37° C. and 5% CO2, 1 ml of Ham's F12 with 20% FBS was added to each well and cells were incubated overnight. Media was replaced with growth medium and incubated for additional 24 hours.
(§4) This assay measures the ability of a bradykinin antagonist compound to compete for binding to the human B2 receptor with tritiated bradykinin or tritiated NPC17731, a bradykinin analog which is known to bind the B2 receptor and act as a bradykinin antagonist.
(§5) H2O.2 cells were grown to confluency in Ham's F12 media containing 10% FBS and 500 μg/ml Geneticin. Growth media was aspirated and the monolayer washed once with Dulbecco's PBS without Ca^++ and Mg^++. Cells were scraped in Dulbecco's PBS and centrifuged at 2,000×g for 10 minutes. Pellets were resuspended in 25 mM TES, 1 mM 1,10-phenanthroline pH 6.8 buffer and homogenized using a Ploytron at setting 5 for 10 seconds. An aliquot was taken for a protein determination using a BioRad protein assay kit. Membranes were centrifuged at 48,000×g for 10 minutes at 4° C. Pellets were resuspended in the TES buffer with 0.1% BSA and 0.014% bacitracin. 0.5 ml aliquots were frozen in liquid N2 and stored at -80° C. for up to 2 weeks.
(§6) Membranes from H2O.2 cells previously prepared were thawed at 37° C. and diluted in 25 mM TES, […] 1,10-phenanthroline pH 6.8 containing BSA and bactiracin. […] Non-specific binding was determined with 1 μM bradykinin. The tubes were incubated 90 minutes at 25° C. and the assay was terminated by rapid vacuum filtration onto Whatman GF/B filters presoaked with 0.2% PEI for 3 hours followed by 2×3 ml aliquots of ice-cold 50 mM Tris, pH 7.4. Radioactivity was counted with a Beckman scintillation counter.
Compound N=C(N)NCCC[C@@H](N)C(=O)N[C@@H](CCCNC(=N)N)C(=O)NCc1ccccc1/C=C/CC(=O)N[C@@H](CO)C(=O)N1Cc2ccccc2C[C@@H]1C(=O)N1[C@H](C(=O)N[C@@H](CCCNC(=N)N)C(=O)O)C[C@@H]2CCCC[C@@H]21 (H-[dR]R[X1]S[dTic][Oic]R-OH) has a Ki of 51 nM.

Same assay, conditions: Table 2, read-out: Radioligand Binding, Ki Human 3HBK
N=C(N)NCCC[C@@H](N)C(=O)N[C@@H](CCCNC(=N)N)C(=O)N1CCc2c(n(CCC(=O)N3CCC4(CC3)C(=O)N(CC(=O)N[C@@H](CCCNC(=N)N)C(=O)O)CN4c3ccccc3)c3ccccc23)C1 [Compound 3] showed a Ki of 570 nM.
For N=C(N)NCCC[C@@H](N)C(=O)N[C@@H](CCCNC(=N)N)C(=O)N1CCC2(CC1)C(=O)N(CC(=O)N1CCc3c(n(CC(=O)N[C@@H](CCCNC(=N)N)C(=O)O)c4ccccc34)C1)CN2C1CCCCC1 [Compound 4], the Ki was 1400 nM.
N=C(N)NCCC[C@@H](N)C(=O)N[C@@H](CCCNC(=N)N)C(=O)N1CCC2(CC1)C(=O)N(CC(=O)N1CCc3c(c4ccccc4n3CC(=O)N[C@@H](CCCNC(=N)N)C(=O)O)C1)CN2c1ccccc1 [Compound 7] gave a Ki of 325 nM.
N=C(N)NCCC[C@@H](N)C(=O)N[C@@H](CCCNC(=N)N)C(=O)N1CCC2(CC1)C(=O)N(CC(=O)N1CCc3c(n(CCC(=O)N[C@@H](CCCNC(=N)N)C(=O)O)c4ccccc34)C1)CN2c1ccccc1 [Compound 8] gave a Ki of 223 nM.
COc1ccc(N2CN(CC(=O)N3CCc4c(c5ccccc5n4CC(=O)N[C@@H](CCCNC(=N)N)C(=O)O)C3)C(=O)C23CCN(C(=O)[C@H](CCCNC(=N)N)NC(=O)[C@H](N)CCCNC(=N)N)CC3)cc1 [Compound 9] gave a Ki of 129 nM.
Compound N=C(N)NCCC[C@@H](N)C(=O)N[C@@H](CCCNC(=N)N)C(=O)N1CCC2(CC1)C(=O)N(CC(=O)N1CCc3c(c4ccccc4n3CC(=O)N[C@@H](CCCNC(=N)N)C(=O)O)C1)CN2C1CCCCC1 [Compound 10] has a Ki of 229 nM.
CCCN1CN(CC(=O)N2CCc3c(c4ccccc4n3CC(=O)N[C@@H](CCCNC(=N)N)C(=O)O)C2)C(=O)C12CCN(C(=O)[C@H](CCCNC(=N)N)NC(=O)[C@H](N)CCCNC(=N)N)CC2 [Compound 11] showed a Ki of 473 nM.
Work on N=C(N)NCCC[C@@H](N)C(=O)N[C@@H](CCCNC(=N)N)C(=O)N1CCC2(CC1)C(=O)N(CC(=O)N1CCc3c(c4ccccc4n3CC(=O)N[C@@H](CCCNC(=N)N)C(=O)O)C1)CN2CC1CCCCC1 [Compound 12] yielded a Ki of 168 nM.
Cc1cc(C)nc(NCCC[C@@H](NC(=O)Cn2c3c(c4ccccc42)CCN(C(=O)CN2CN(c4ccccc4)C4(CCN(C(=O)[C@H](CCCNC(=N)N)NC(=O)[C@H](N)CCCNC(=N)N)CC4)C2=O)C3)C(N)=O)n1 [Compound 14] gave a Ki of 78.4 nM.
Cc1cc(C)nc(NCCC[C@@H](NC(=O)Cn2c3c(c4ccccc42)CCN(C(=O)CN2CN(c4ccccc4)C4(CCN(C(=O)[C@@H](N)CCCNC(=N)N)CC4)C2=O)C3)C(N)=O)n1 [Compound 15] was tested, and the Ki was 285 nM.
Compound Cc1cc(C)nc(NCCC[C@@H](NC(=O)Cn2c3c(c4ccccc42)CCN(C(=O)CN2CN(c4ccccc4)C4(CCN(C(=O)[C@H](N)CCCNC(=N)N)CC4)C2=O)C3)C(N)=O)n1 [Compound 16] has a Ki of 212 nM.
For Cc1cc(C)nc(NCCC[C@@H](NC(=O)Cn2c3c(c4ccccc42)CN(C(=O)CN2CN(CC4CCCCC4)C4(CCN(C(=O)[C@H](CCCNC(=N)N)NC(=O)[C@H](N)CCCNC(=N)N)CC4)C2=O)CC3)C(N)=O)n1 [Compound 20], the Ki was 52 nM.

Each compound was assayed against T1, human bradykinin B2 receptor (assay: Radioligand binding, H2O.2 cell membranes, 3H-NPC17731). Details: not given.
Method: as §1, §2, §3, §4, §5, §6
With N=C(N)NCCC[C@@H](N)C(=O)N[C@@H](CCCNC(=N)N)C(=O)N1CCC2(CC1)C(=O)N(CC(=O)N[C@@H](CO)C(=O)N1Cc3ccccc3C[C@@H]1C(=O)N1[C@H](C(=O)N[C@@H](CCCNC(=N)N)C(=O)O)C[C@@H]3CCCC[C@@H]31)CN2c1ccccc1 [drawing 59] the Ki was 7.8 nM.

Same assay, conditions: Table 1; 3H-NPC17731; read-out: Radioligand Binding Human 3H17731
Work on N=C(N)NCCC[C@@H](N)C(=O)N[C@@H](CCCNC(=N)N)C(=O)NCCCCCCCCCCCC(=O)N[C@@H](CO)C(=O)N1Cc2ccccc2C[C@@H]1C(=O)N1[C@H](C(=O)N[C@@H](CCCNC(=N)N)C(=O)O)C[C@@H]2CCCC[C@@H]21 (H-[dR]R[12Ado]S[dTic][Oic]R-OH) yielded a Ki of 31 nM.
Compound N=C(N)NCCC[C@@H](N)C(=O)N[C@@H](CCCNC(=N)N)C(=O)NCCCCCC(=O)N[C@@H](CO)C(=O)N1Cc2ccccc2C[C@@H]1C(=O)N1[C@H](C(=O)N[C@@H](CCCNC(=N)N)C(=O)O)C[C@@H]2CCCC[C@@H]21 (H-[dR]R[Ahx]S[dTic][Oic]R-OH) has a Ki of 100 nM.
With N=C(N)NCCC[C@@H](N)C(=O)N[C@@H](CCCNC(=N)N)C(=O)NC/C=C/C(=O)N[C@@H](CO)C(=O)N1Cc2ccccc2C[C@@H]1C(=O)N1[C@H](C(=O)N[C@@H](CCCNC(=N)N)C(=O)O)C[C@@H]2CCCC[C@@H]21 (H-[dR]R[Butenoyl(2E,4-amino)]S[dTic][Oic]R-OH) the Ki was 229 nM.
N=C(N)NCCC[C@@H](N)C(=O)N[C@@H](CCCNC(=N)N)C(=O)NCc1ccccc1/C=C/CC(=O)N[C@@H](CO)C(=O)N1Cc2ccccc2C[C@@H]1C(=O)N1[C@H](C(=O)N[C@@H](CCCNC(=N)N)C(=O)O)C[C@@H]2CCCC[C@@H]21 (H-[dR]R[X1]S[dTic][Oic]R-OH) was tested, and the Ki was 17 nM.
N=C(N)NCCC[C@@H](N)C(=O)N[C@@H](CCCNC(=N)N)C(=O)NCc1ccccc1/C=C/C(=O)N(CC(=O)N[C@@H](CO)C(=O)N1Cc2ccccc2C[C@@H]1C(=O)N1[C@H](C(=O)N[C@@H](CCCNC(=N)N)C(=O)O)C[C@@H]2CCCC[C@@H]21)Cc1ccccc1 (H-[dR]R[X2][Nphe]S[dTic][Oic]R-OH) gave a Ki of 28 nM.
With N=C(N)NCCC[C@@H](N)C(=O)N[C@@H](CCCNC(=N)N)C(=O)N1CCC(n2c(=O)n(CC(=O)N[C@@H](CO)C(=O)N3Cc4ccccc4C[C@@H]3C(=O)N3[C@H](C(=O)N[C@@H](CCCNC(=N)N)C(=O)O)C[C@@H]4CCCC[C@@H]43)c3ccccc32)CC1 (H-[dR]R[X3]S[dTic][Oic]R-OH) the Ki was 58 nM.
N=C(N)NCCC[C@@H](N)C(=O)N[C@@H](CCCNC(=N)N)C(=O)N1CCc2c(c3ccccc3n2CC(=O)N[C@@H](CO)C(=O)N2Cc3ccccc3C[C@@H]2C(=O)N2[C@H](C(=O)N[C@@H](CCCNC(=N)N)C(=O)O)C[C@@H]3CCCC[C@@H]32)C1 (H-[dR]R[X4]S[dTic][Oic]R-OH) gave a Ki of 78 nM.
For N=C(N)NCCC[C@@H](N)C(=O)N[C@@H](CCCNC(=N)N)C(=O)NCCc1ccccc1/C=C/C(=O)N[C@@H](CO)C(=O)N1Cc2ccccc2C[C@@H]1C(=O)N1[C@H](C(=O)N[C@@H](CCCNC(=N)N)C(=O)O)C[C@@H]2CCCC[C@@H]21 (H-[dR]R[X6]S[dTic][Oic]R-OH), the Ki was 23 nM.
N=C(N)NCCC[C@@H](N)C(=O)N[C@@H](CCCNC(=N)N)C(=O)Nc1ccc2c3ccccc3c(=O)n(CC(=O)N[C@@H](CO)C(=O)N3Cc4ccccc4C[C@@H]3C(=O)N3[C@H](C(=O)N[C@@H](CCCNC(=N)N)C(=O)O)C[C@@H]4CCCC[C@@H]43)c2c1 (H-[dR]R[X7]S[dTic][Oic]R-OH) showed a Ki of 3.3 nM.
